Patent publication US20090197934A1, “IMIDAZOLINYLMETHYL ARYL SULFONAMIDE” (priority 2008, published 2009)

Columns and labels:
[1] = test system: Female Yucatan Micro-Swine; test: Conscious Pig Model (IUP, MAP and HR during iv infusion); assay type: in vivo
Experimental: In general, IUP is the intraurethral pressure and is measured as the 2 minute mean from the first peak of the urethral response (FIG. 1). MAP is the mean arterial blood pressure and is measured as the average blood pressure during the 2 minute section where IUP is measured. The durability is the slope of the IUP response in mmHg/min and is calculated immediately after the 2 minute IUP response for 5 minutes (2-7 minutes post the first peak) for the top 3 doses.
Sling Training: Female Yucatan Micro-Swine were trained to stay in a sling for up to 4 hours. Swine were exposed to progressively longer sling durations per IACUC sling-training guideline.
Surgical Instrumentation: Female Yucatan Micro-swine were instrumented with a telemetry device with both pressure and ECG monitoring capabilities (Data Sciences International St Paul Minn.). In addition, a Bardport low profile titanium VAP was placed subcutanteously for blood sampling. All devices were implanted by the surgical veterinarian at Roche Palo Alto. Briefly, the telemetry probe body was placed subcutaneously in the cervical region. The intra-arterial pressure catheter was advanced via the superficial cervical artery into the subclavian artery for blood pressure measurement. The ECG leads were placed intra-muscularly: one in the intercostal muscle between the T8-T10 regions on the left side, and the other in the intercostal muscles between the T1-T3 regions on the right side. The VAP was placed subcutaneously in the neck region, with the catheter advanced into the jugular vein. Swine were allowed to fully recover from the surgery (typically 10 days). […]
Experiment: After the swine was fully awake and stable (usually approximately 1 hour post wake up), baseline blood pressure, IUP, and heart rate parameters were determined. […]
Data Generating and Analysis Systems: Cardiovascular readings were generated by the TL11M3-D70-PCP (Data Sciences International, St. Paul, Minn.) telemetry device and associated hardware. […] IUP was monitored by a solid state catheter connected to a TA6000 Polygraph (Data Sciences International, St. Paul, Minn.). […]

[2] = molecular target: T1, alpha-1A adrenoceptors (Homo sapiens, UniProt P35348); test: alpha-1A adrenoceptor partial agonist activity (intrinsic activity and pEC50); assay type: cell-based
T1 sequence (P35348 1-466): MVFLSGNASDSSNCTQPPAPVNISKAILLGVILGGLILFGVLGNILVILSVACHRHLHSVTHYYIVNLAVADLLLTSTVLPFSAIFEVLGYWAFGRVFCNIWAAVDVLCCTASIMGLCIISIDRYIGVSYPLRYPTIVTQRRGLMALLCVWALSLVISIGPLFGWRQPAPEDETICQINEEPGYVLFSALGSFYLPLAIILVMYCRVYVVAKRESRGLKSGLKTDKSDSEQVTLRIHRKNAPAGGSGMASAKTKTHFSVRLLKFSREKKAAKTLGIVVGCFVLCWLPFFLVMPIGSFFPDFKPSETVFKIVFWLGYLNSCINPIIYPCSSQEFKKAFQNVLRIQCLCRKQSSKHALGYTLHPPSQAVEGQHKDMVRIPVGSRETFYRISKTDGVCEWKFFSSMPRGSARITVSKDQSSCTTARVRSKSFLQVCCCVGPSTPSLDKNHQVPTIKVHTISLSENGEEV

- intrinsic activity, or efficacy, as a partial agonist ([2]; ideally between 0.35 to 0.60): 0.45
- EC50 ([2]; read-out: affinity, or pEC50 value (converted)): 316 nM
SMILES: CS(=O)(=O)Nc1cc(F)c(CC2=NCCN2)c(Br)c1Cl [Formula I, N-[3-Bromo-2-chloro-4-(4,5-dihydro-1H-imidazol-2-ylmethyl)-5-fluoro-phenyl]-methanesulfonamide]
- maximum arterial blood pressure effect [1]: low
- selectivity for enhancement of intraurethral pressure (IUP) over blood pressure (MAP) [1]: selectivity for enhancement of intraurethral pressure (IUP) over blood pressure (MAP)
- durability of IUP response over time ([1]; compared to analogue compound lacking the 3-bromo and 5-fluoro substituents (FIG. 1b vs FIG. 1c)): unexpectedly increased durability of IUP response over time
